Data as given in US20080318939A1, “METHODS FOR TREATING OPHTHALMIC DISORDERS” (priority 2007, published 2008).

Assays:
normal bone marrow cells = test: inhibition of proliferation of normal bone marrow cells; assay type: cell-based; conditions: specificity
leukemia cells = test: inhibition of proliferation of leukemia cells; assay type: cell-based; conditions: cells associated with a cell proliferation condition
[1] = permeation of the blood-brain barrier

CN1CCCC1CCNC(=O)c1cn2c3c(c(N4CCC(c5cnccn5)C4)c(F)cc3c1=O)Oc1cc3ccccc3cc1-2 (stereo not drawn) [TA1-1A]
inhibition of normal bone marrow cells (normal bone marrow cells): without inhibiting normal bone marrow cells | inhibition of leukemia cells (leukemia cells): inhibits leukemia cells

CC(=O)N1CCN(c2nc3c(cc2F)c(=O)c(C(=O)NCCN2CCCC2)c2n(C)c4ccccc4n32)CC1 [TA4-1 A]
blood-brain barrier permeation [1]: significantly permeates the blood-brain barrier
